In the supplement of paper PMC11061612:

Key:
Assay in all cases: Bliss excess, mean over the matrix (fraction); higher = more synergy
[1] = tested on: NCI-H2170 (Squamous Cell Lung Carcinoma)
In short: (§1)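 Cell lines grown in DMEM/F12 or RPMI with 10% FBS were plated in 1536-well plates and held 24 hours at 37°C, 5% CO2 before 72 hours of exposure to two-drug dose matrices, with DMSO typically at 0.2%. CellTiter-Glo 2.0 luminescence gave viability, which was converted to inhibition. Vehicle wells were set to 0 and blank wells to 1. Combination Emax is the second-highest inhibition in the matrix, and Bliss excess is the observed combination effect minus the expected EA + EB − EA·EB, where EA and EB are the single-agent effects.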

[2] = tested on: SUP-HD1 (Hodgkin's Lymphoma)
In short: as §1

[3] = tested on: MRK-nu-1 (Breast Carcinoma)
In short: as §1

[4] = tested on: KNS-62 (Squamous Cell Lung Carcinoma)
In short: as §1

[5] = tested on: BC-1 (B-Cell Non-Hodgkin's Lymphoma)
In short: as §1

[6] = tested on: HT-1197 (Bladder Carcinoma)
In short: as §1

[7] = tested on: NCI-H1975 (Lung Adenocarcinoma)
In short: as §1

[8] = tested on: TOV-21G (Ovarian Carcinoma)
In short: as §1

[9] = tested on: NCI-H1648 (Lung Adenocarcinoma)
In short: as §1

[10] = tested on: HT-3 (Cervical Carcinoma)
In short: as §1

HT-144 (Melanoma) = tested on: HT-144 (Melanoma)
In short: as §1

[11] = tested on: MDA-MB-175-VII (Breast Carcinoma)
In short: as §1

[12] = tested on: SNU-1 (Gastric Carcinoma)
In short: as §1

[13] = tested on: NCI-H2023 (Non-Small Cell Lung Carcinoma)
In short: as §1

GCIY (Gastric Carcinoma) = tested on: GCIY (Gastric Carcinoma)
In short: as §1

[14] = tested on: OVKATE (Ovarian Carcinoma)
In short: as §1

[15] = tested on: SBC-5 (Small Cell Lung Carcinoma)
In short: as §1

DK-MG (Glioblastoma) = tested on: DK-MG (Glioblastoma)
In short: as §1

SK-MEL-24 (Melanoma) = tested on: SK-MEL-24 (Melanoma)
In short: as §1

[16] = tested on: RS4-11 (B-Lymphoblastic Leukemia)
In short: as §1

Row | SMILES | Bliss excess [1] | Bliss excess [2] | Bliss excess [3] | Bliss excess [4] | Bliss excess [5] | Bliss excess [6] | Bliss excess [7] | Bliss excess [8] | Bliss excess [9] | Bliss excess [10] | Bliss excess (HT-144 (Melanoma)) | Bliss excess [11] | Bliss excess [12] | Bliss excess [13] | Bliss excess (GCIY (Gastric Carcinoma)) | Bliss excess [14] | Bliss excess [15] | Bliss excess (DK-MG (Glioblastoma)) | Bliss excess (SK-MEL-24 (Melanoma)) | Bliss excess [16]
1 | COc1cccc(OCCCN)c1-c1cc(Nc2cnc(C#N)cn2)n[nH]1 [Prexasertib] + C[C@@H]1COCCN1C2=NC(=NC(=C2)C3(CC3)[S@](=N)(=O)C)C4=C5C=CNC5=NC=C4 [AZD6738] (first compound max 1 µM, 7x7, partner max 10 µM) | -0.0461 | -0.0809 | -0.0703 | 0.0035 | -0.0022 | 0.0065 | 0.0029 | -0.0582 | -0.0445 | 0.0202 | -0.0217 | -0.0016 | -0.0712 | 0.0108 | 0.0063 | -0.0378 | -0.0272 | 0.0073 | -0.0061 | -0.0225
2 | COc1nnc2ccc(N3CCC(c4ccc(OCCN5CCN(C)C(=O)[C@H]5C)cc4)CC3)nn12 [AZD5153] + CCN(CCO)CCCOc1ccc2c(Nc3cc(CC(=O)Nc4cccc(F)c4)[nH]n3)ncnc2c1 [AZD2811] (first compound max 1 µM, 7x7, partner max 1 µM) | 0.0103 | -0.0586 | 0.0096 | -0.0382 | -0.0313 | -0.0034 | -0.005 | -0.0249 | -0.0494 | -0.0644 | 0.0216 | 0.0618 | 0.0024 | -0.0248 | -0.0388 | -0.0668 | -0.0286 | -0.13 | -0.102 | -0.0195
3 | COc1nnc2ccc(N3CCC(c4ccc(OCCN5CCN(C)C(=O)[C@H]5C)cc4)CC3)nn12 [AZD5153] + C[C@@H]1COCCN1C2=NC(=NC(=C2)C3(CC3)[S@](=N)(=O)C)C4=C5C=CNC5=NC=C4 [AZD6738] (first compound max 1 µM, 7x7, partner max 10 µM) | 0.0964 | -0.0281 | -0.0072 | -0.018 | -0.0709 | -0.0082 | -0.0013 | -0.0018 | -0.0572 | 0.0769 | 0.0637 | 0.0118 | 0.0228 | 0.0692 | 0.0327 | -0.0027 | -0.0151 | -0.0073 | -0.0037 | 0.0145
4 | NC1(C(=O)N[C@@H](CCO)c2ccc(Cl)cc2)CCN(c2ncnc3[nH]ccc23)CC1 [Capivasertib] + CCN(CCO)CCCOc1ccc2c(Nc3cc(CC(=O)Nc4cccc(F)c4)[nH]n3)ncnc2c1 [AZD2811] (first compound max 10 µM, 7x7, partner max 1 µM) | 0.0135 | -0.0307 | 0.0481 | -0.0086 | -0.0383 | 0.016 | -0.0558 | 0.0123 | -0.0419 | -0.0327 | -0.0195 | -0.0202 | 0.0214 | -0.0087 | -0.0578 | -0.0367 | 0.0526 | -0.0447 | -0.0891 | -0.0504
5 | Cn1cnc2c(F)c(Nc3ccc(Br)cc3Cl)c(C(=O)NOCCO)cc21 [Selumetinib] + CCN(CCO)CCCOc1ccc2c(Nc3cc(CC(=O)Nc4cccc(F)c4)[nH]n3)ncnc2c1 [AZD2811] (first compound max 10 µM, 7x7, partner max 1 µM) | -0.0566 | 0.0251 | 0.045 | -0.0104 | 0.0349 | -0.0073 | 0.0012 | 0.0139 | 0.0048 | -0.0288 | 0.0172 | 0.0109 | 0.0767 | -0.0294 | -0.0127 | -0.0349 | -0.0253 | -0.0736 | -0.0628 | -0.0367
6 | CCN(CCO)CCCOc1ccc2c(Nc3cc(CC(=O)Nc4cccc(F)c4)[nH]n3)ncnc2c1 [AZD2811] + C[C@@H]1COCCN1C2=NC(=NC(=C2)C3(CC3)[S@](=N)(=O)C)C4=C5C=CNC5=NC=C4 [AZD6738] (first compound max 1 µM, 7x7, partner max 10 µM) | -0.0191 | 0.0391 | -0.077 | -0.0546 | -0.1 | -0.0441 | 0.0002 | -0.0548 | -0.0898 | -0.0538 | -0.0711 | -0.0307 | 0.0129 | -0.0555 | -0.0326 | -0.0822 | -0.0236 | -0.0146 | -0.0914 | 0.0023
7 | C=CCn1c(=O)c2cnc(Nc3ccc(N4CCN(C)CC4)cc3)nc2n1-c1cccc(C(C)(C)O)n1 [AZD1775] + O=C(c1cc(Cc2n[nH]c(=O)c3ccccc23)ccc1F)N1CCN(C(=O)C2CC2)CC1 [Olaparib] (first compound max 1 µM, partner max 10 µM) | -0.008 | -0.0346 | -0.0311 | -0.0293 | -0.0326 | -0.0023 | -0.0248 | -0.0126 | -0.0216 | -0.0055 | -0.0681 | -0.0351 | -0.0425 | -0.039 | -0.0521 | -0.0316 | -0.0435 | -0.054 | -0.0194 | -0.0192
8 | COc1nnc2ccc(N3CCC(c4ccc(OCCN5CCN(C)C(=O)[C@H]5C)cc4)CC3)nn12 [AZD5153] + C=CCn1c(=O)c2cnc(Nc3ccc(N4CCN(C)CC4)cc3)nc2n1-c1cccc(C(C)(C)O)n1 [AZD1775] (first compound max 1 µM, partner max 1 µM) | 0.06 | -0.114 | -0.0354 | -0.0371 | -0.048 | -0.0045 | 0.0251 | -0.0246 | -0.0816 | -0.0104 | 0.0394 | -0.0255 | -0.0873 | 0.0244 | -0.0136 | -0.0373 | -0.015 | -0.0209 | -0.0421 | 0.0184
9 | Cn1cnc2c(F)c(Nc3ccc(Br)cc3Cl)c(C(=O)NOCCO)cc21 [Selumetinib] + C[C@@H]1COCCN1C2=NC(=NC(=C2)C3(CC3)[S@](=N)(=O)C)C4=C5C=CNC5=NC=C4 [AZD6738] (first compound max 10 µM, 7x7, partner max 10 µM) | -0.0464 | -0.0549 | -0.0317 | -0.0278 | -0.0612 | 0.0196 | 0.0316 | 0.0142 | -0.0259 | 0.063 | -0.0011 | 0.029 | 0.0537 | -0.0255 | -0.0003 | -0.0282 | 0.0096 | 0.059 | 0.0125 | -0.0098
10 | CC1(C)CCC(CN2CCN(c3ccc(C(=O)NS(=O)(=O)c4ccc(NCC5CCOCC5)c([N+](=O)[O-])c4)c(Oc4cnc5[nH]ccc5c4)c3)CC2)=C(c2ccc(Cl)cc2)C1 [Venetoclax] + COc1cc(Nc2ncc3c(n2)-c2ccc(Cl)cc2C(c2c(F)cccc2OC)=NC3)ccc1C(=O)O [Alisertib] (first compound max 1 µM, 7x7, partner max 10 µM) | -0.0702 | 0.0776 | 0.129 | -0.0512 | -0.0492 | -0.0358 | -0.0453 | -0.006 | 0.0579 | -0.0262 | 0.0089 | -0.0221 | -0.0103 | -0.0679 | 0.0271 | -0.0154 | 0.024 | -0.0012 | -0.0132 | 0.0168
11 | CN(C)CCCOc1ccc(-c2ccc3ncc4c(c3c2)n(C2CCOCC2)c(=O)n4C)cn1 [AZD0156] + C[C@@H]1COCCN1C2=NC(=NC(=C2)C3(CC3)[S@](=N)(=O)C)C4=C5C=CNC5=NC=C4 [AZD6738] (first compound max 1 µM, 7x7, partner max 10 µM) | 0.0947 | -0.0232 | -0.0411 | -0.0343 | -0.0305 | -0.0362 | 0.0026 | 0.025 | 0.005 | 0.0031 | -0.0484 | -0.0122 | 0.0461 | -0.021 | 0.0607 | -0.0189 | 0.0116 | 0.0346 | -0.0159 | -0.0192
12 | NC1(C(=O)N[C@@H](CCO)c2ccc(Cl)cc2)CCN(c2ncnc3[nH]ccc23)CC1 [Capivasertib] + Cn1cnc2c(F)c(Nc3ccc(Br)cc3Cl)c(C(=O)NOCCO)cc21 [Selumetinib] (first compound max 10 µM, 7x7, partner max 10 µM) | 0.0047 | -0.0141 | 0.0218 | 0.119 | 0.0898 | 0.0646 | 0.0584 | 0.0122 | 0.0807 | -0.0176 | 0.0042 | 0.0989 | 0.0764 | -0.0583 | -0.0245 | 0.0215 | 0.0801 | 0.0686 | -0.0145 | -0.016
13 | CC1(C)CCC(CN2CCN(c3ccc(C(=O)NS(=O)(=O)c4ccc(NCC5CCOCC5)c([N+](=O)[O-])c4)c(Oc4cnc5[nH]ccc5c4)c3)CC2)=C(c2ccc(Cl)cc2)C1 [Venetoclax] + C=CCn1c(=O)c2cnc(Nc3ccc(N4CCN(C)CC4)cc3)nc2n1-c1cccc(C(C)(C)O)n1 [AZD1775] (first compound max 1 µM, partner max 1 µM) | -0.0548 | -0.0256 | -0.0341 | -0.0106 | 0.0683 | -0.001 | -0.0143 | -0.0261 | -0.0451 | -0.0049 | -0.0314 | -0.0111 | -0.0156 | 0.0053 | 0.111 | -0.0169 | -0.0709 | -0.0003 | -0.0473 | 0.0174
